Laboratory results reported in patent US9399666B2, “Inhibiting interaction between the HIF-1ALPHA and p300/CBP with hydrogen bond surrogate-based helices” (New York University, priority 2008, dated 2016).
Peptide text beside a SMILES is read from it.

Experiments:
p300 = p300 (Homo sapiens, UniProt Q09472); assay: Affinity for p300 by isothermal titration calorimetry; format: binding; details: for Affinity for p300 (in words): ITC; for Kd: isothermal titration calorimetry, p300, read-out: Kd (ITC)
Description: Helix αA of HIF-1α C-TAD, shown in FIG. 1A and FIG. 1C, is critical for the interaction between the CH1 domain and HIF-1α, because mutation of its residues or hydroxylation of Asn803 is known to disrupt this complex and inhibit HIF-1α mediated transcription (Freedman et al., “Structural Basis for Recruitment of CBP/p300 by Hypoxia-inducible Factor-1α,” Proc. Nat'l Acad. Sci. USA 99:5367-72 (2002); Dames et al., “Structural Basis for Hif-1α/CBP Recognition in the Cellular Hypoxic Response,” Proc. Nat'1 Acad. Sci. USA 99:5271-6 (2002). Development of HBS helices as potential inhibitors of VEGF transcription was begun by mimicking the aA helix region of HIF-1. This helix consists of eight residues, […] (SEQ ID NO: 111), and features three residues, Asp-Cys-Glu, critical for binding with p300/CBP. Several linear peptides and their HBS α-helix analogs were designed to gauge the potential of these molecules to inhibit VEGF transcription in cell culture. Each unconstrained peptide and HBS helix was synthesized using the procedures described in (Dimartino et al., “Solid-phase Synthesis of Hydrogen-bond Surrogate-derived α-Helices,” Org. Lett. 7:2389-92 (2005); Chapman & Arora, “Optimized Synthesis of Hydrogen-bond Surrogate Helices: Surprising Effects of Microwave Heating on the Activity of Grubbs Catalysts,” Org. Lett. 8:5825-8 (2006)). The percent helicity of each peptide was determined using circular dichroism spectroscopy in 10 mM phosphate buffered saline as described in (Wang et al., “Evaluation of Biologically Relevant Short α-Helices Stabilized by a Main-chain Hydrogen-bond Surrogate,” J. Am. Chem. Soc. 128:9248-56 (2006)). The affinity of each peptide for p300 was measured by isothermal titration calorimetry analysis (Wiseman et al., “Rapid Measurement of Binding Constants and Heats of Binding Using a New Titration calorimeter,” Anal. Biochem. 179:131-7 (1989); Freire et al., “Isothermal Titration calorimetry,” Anal. Chem. 62:A950-A959 (1990); Chervenak & Toone, “Calorimetric Analysis of the Binding of Lectins with Overlapping Carhohydrate-binding Ligand Specificities,” Biochemistry 34:5685-95 (1995); Aki et al., “Competitive Binding of Drugs to the Multiple Binding Sites on Human Serum Albumin. A calorimetric Study,” J Thermal Anal. calorim. 57:36170 (1999); Graziano et al., “Linkage of Proton Binding to the Thermal Unfolding of Sso7d from the Hyperthermophilic Archaebacterium Sulfolobus solfataricus,” Int'l J. Biol. Macromolecules 26:45-53 (1999); Pluschke & Mutz, “Use of Isothermal Titration calorimetry in the Development of Molecularly Defined Vaccines,” J Thermal Anal. calorim. 57:377-88 (1999); Corbell et al., “A Comparison of Biological and calorimetric Analyses of Multivalent Glycodendrimer Ligands for Concanavalin A,” Tetrahedron-Asymmetry 11:95-111 (2000)). The ability of each peptide to downregulate VEGF transcription in cell culture was evaluated by […] quantitative RT-PCR, as described above. The cytotoxicity of each peptide was determined by monitoring cellular growth and population doubling in the presence of individual peptides at 1μM concentration.

[1] = Percent helicity by circular dichroism spectroscopy; format: physicochemical; details: 10 mM phosphate buffered saline
Description: Helix αA of HIF-1α C-TAD, shown in FIG. 1A and FIG. 1C, is critical for the interaction between the CH1 domain and HIF-1α, because mutation of its residues or hydroxylation of Asn803 is known to disrupt this complex and inhibit HIF-1α mediated transcription (Freedman et al., “Structural Basis for Recruitment of CBP/p300 by Hypoxia-inducible Factor-1α,” Proc. Nat'l Acad. Sci. USA 99:5367-72 (2002); Dames et al., “Structural Basis for Hif-1α/CBP Recognition in the Cellular Hypoxic Response,” Proc. Nat'1 Acad. Sci. USA 99:5271-6 (2002). Development of HBS helices as potential inhibitors of VEGF transcription was begun by mimicking the aA helix region of HIF-1. This helix consists of eight residues, […] (SEQ ID NO: 111), and features three residues, Asp-Cys-Glu, critical for binding with p300/CBP. Several linear peptides and their HBS α-helix analogs were designed to gauge the potential of these molecules to inhibit VEGF transcription in cell culture. Each unconstrained peptide and HBS helix was synthesized using the procedures described in (Dimartino et al., “Solid-phase Synthesis of Hydrogen-bond Surrogate-derived α-Helices,” Org. Lett. 7:2389-92 (2005); Chapman & Arora, “Optimized Synthesis of Hydrogen-bond Surrogate Helices: Surprising Effects of Microwave Heating on the Activity of Grubbs Catalysts,” Org. Lett. 8:5825-8 (2006)). The percent helicity of each peptide was determined using circular dichroism spectroscopy in 10 mM phosphate buffered saline as described in (Wang et al., “Evaluation of Biologically Relevant Short α-Helices Stabilized by a Main-chain Hydrogen-bond Surrogate,” J. Am. Chem. Soc. 128:9248-56 (2006)). The affinity of each peptide for p300 was measured by isothermal titration calorimetry analysis (Wiseman et al., “Rapid Measurement of Binding Constants and Heats of Binding Using a New Titration calorimeter,” Anal. Biochem. 179:131-7 (1989); Freire et al., “Isothermal Titration calorimetry,” Anal. Chem. 62:A950-A959 (1990); Chervenak & Toone, “Calorimetric Analysis of the Binding of Lectins with Overlapping Carhohydrate-binding Ligand Specificities,” Biochemistry 34:5685-95 (1995); Aki et al., “Competitive Binding of Drugs to the Multiple Binding Sites on Human Serum Albumin. A calorimetric Study,” J Thermal Anal. calorim. […] The ability of each peptide to downregulate VEGF transcription in cell culture was evaluated by […] quantitative RT-PCR, as described above. The cytotoxicity of each peptide was determined by monitoring cellular growth and population doubling in the presence of individual peptides at 1μM concentration.

MDA-MB-231-HRE-Luc cells = format: cell-based; details: for % Transcription inhibition in cell culture (Luc): luciferase assay, 1 μM peptide
Protocol: MDA-MB-231-HRE-Luc cells were maintained in high glucose Dulbecco's Modified Eagle's Medium (“DMEM”) supplemented with 10% fetal bovine serum and 0.4 g/L Geneticin (G418 sulfate, RPI Corporation). Cells were plated in 24-well dishes (BD Falcon) at a density of […] using 1 mL of a 6.5×10^4 cell/mL suspension. […] Cells were incubated for 6 hours at 37° C. in a humidified atmosphere with 5% CO2. Hypoxia was induced by adding desferoxamine mesylate (DFO, Sigma) to a final concentration of 300 μM, and cells were incubated for an additional 18 hours. Whole cell lysates were isolated by washing the cells twice with ice cold PBS and then adding 150 μL of Cell Culture Lysis Reagent (“CCLR,” Promega). Lysate was collected, centrifuged at 13,000 rpm at 4° C., aliquoted, and stored at −80° C. Luciferase assays were conducted according to the manufacturer's instructions (Promega) using a Turner TD-20e Luminometer. Relative light intensity measurements were normalized by performing a Bradford assay to determine the protein content of the lysate used in the luciferase assay. Briefly, 50 μL of cell lysate/luciferase assay reagent mix was added to 200 μL of Bradford reagent and 750 μL of Millipore water in a 1.5 mL cuvette. Protein standards were created in the range of 1 μg/mL to 10 μg/mL with the appropriate amount of a 1 mg/mL BSA solution. Absorbance was measured at 595 nm using a DU-800 spectrophotometer. The experiments were carried out in triplicate with the error bars calculated as standard error of the mean.

circular dichroism = details: 10 mM phosphate buffered saline (par. 0128, each peptide; pH given only for 22 and 25, Fig 6B), pH 7.4, ns °C
experimental animals = details: cited from earlier work
[2] = tested on: HIF-1α C-TAD and p300/CBP; details: literature (Kung et al. 2004); cited from earlier work

Row | Affinity for p300 (in words) (p300) | % Helicity [1] | SMILES | Inhibition of VEGF transcription in cell culture (in words) (MDA-MB-231-HRE-Luc cells) | % Transcription inhibition in cell culture (Luc) (MDA-MB-231-HRE-Luc cells) | helicity (circular dichroism) | Side effects in experimental animals (experimental animals) | Kd (p300) | % Transcription inhibition in cell culture (MDA-MB-231-HRE-Luc cells; 200 nM chetomin, qRT-PCR or luciferase, method not given) | Inhibition of interaction between HIF-1α C-TAD and p300/CBP [2]
1 | bound p300 with significant affinities | 15% | CC(=O)N[C@H](C(=O)N[C@@H](C)C(=O)N[C@@H](Cc1ccc(O)cc1)C(=O)N[C@@H](CC(=O)O)C(=O)N[C@@H](CS)C(=O)N[C@@H](CCC(=O)O)C(=O)N[C@H](C(=O)N[C@@H](CC(N)=O)C(=O)N[C@@H](C)C(N)=O)C(C)C)[C@@H](C)O [Compound 24] (Ac-TAYDCEVNA-NH2) | failed to inhibit VEGF transcription in cell culture | 15 ± 5% | 15% |  |  |  | 
2 |  |  | CN1C(=O)[C@@]23C[C@]4([C@]56C[C@@]78SS[C@@](CO)(C(=O)N7[C@H]5Nc5ccccc56)N(C)C8=O)c5ccccc5N[C@@H]4N2C(=O)[C@]1(CO)SS3 [chaetocin 1, chaetocin] |  |  |  | induced coagulative necrosis, anemia, and leukocytosis |  |  | 
3 |  |  | CN1C(=O)[C@]2(Cc3cn([C@]45C[C@@]67SS[C@@](CO)(C(=O)N6[C@H]4Nc4ccccc45)N(C)C7=O)c4ccccc34)SS[C@@]1(CO)C(=O)N2C [Compound 26, chetomin, reference compound] | more potent inhibitor of VEGF transcription than HBS helix 22 |  |  | induced coagulative necrosis, anemia, and leukocytosis | 120 nM | 50 ± 5% | inhibit the interaction between HIF-1α C-TAD and p300/CBP
4 |  |  | CC(C)[C@H](NC(=O)[C@H](CCC(=O)O)NC(=O)[C@@H](NC(=O)[C@H](CC(=O)O)NC(=O)[C@H](Cc1ccc(O)cc1)N1CC=CCCC(=O)N[C@@H]([C@@H](C)O)C(=O)N[C@@H](C)C1=O)C(C)C)C(=O)N[C@@H](CC(N)=O)C(=O)N[C@@H](C)C(N)=O [Compound 21] |  |  | 16% |  | 690 ± 60 nM |  | 
5 | bound p300 with significant affinities | 14% | CC(=O)N[C@H](C(=O)N[C@@H](CO)C(=O)N[C@@H](Cc1ccc(O)cc1)C(=O)N[C@@H](CC(=O)O)C(=O)N[C@@H](CS)C(=O)N[C@@H](CCC(=O)O)C(=O)N[C@H](C(=O)N[C@@H](CC(N)=O)C(=O)N[C@@H](C)C(N)=O)C(C)C)[C@@H](C)O [Compound 23] (Ac-TSYDCEVNA-NH2) | failed to inhibit VEGF transcription in cell culture | 10 ± 5% | 14% |  |  |  | 
